Assay [1] has as its system cultured human mast cells (CHMC). In words: CHMC low cell density IgE activation: tryptase assay. The format is cell-based. The method in brief: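 Degranulation is read as supernatant tryptase activity, using tryptase substrate incubated 30 min at room temperature. Before this, CHMC at low density (1000-1500 cells/well) rest 1 hr at 37° C and are triggered with anti-IgE for 30 min at 37° C.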

The test system is the same in assay [2]. Put plainly: CHMC low cell density ionomycin activation: tryptase assay. Type of assay: cell-based.
For assay [3] the test system is unchanged. Put plainly: CHMC high cell density IgE activation: hexos. The format is cell-based.
Assay [4] has the same test system. Put plainly: CHMC high cell density IgE activation: tryptase. The format is cell-based.
For assay [5] the test system is unchanged. Put plainly: CHMC high cell density IgE activation: LTC4. The format is cell-based. The method in brief:
(§1)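 IgE-sensitized CHMC at 1-2 ×10^6 cells/ml were preincubated with compound (0.5% DMSO) for 1 h at 37 °C, then stimulated with anti-IgE for 1 h before supernatant collection. Pellets were reincubated with compound for 7 h at 37 °C, and mediators were measured by ELISA on diluted supernatants.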

Assay [6] has the same test system. Put plainly: CHMC high cell density IgE activation: TNFalpha. The format is cell-based. Particulars: read-out: CHMC high density TNF-alpha. The method in brief: as §1
The subject of the next assay is Jurkat cells. In words: Jurkat toxicity, Cell Titer Glo assay. Type of assay: cell-based, human. The method, then:
Seed 50 μl cells (1×10^6/ml) into each well containing 50 μl compound. […] Shake plates for 1 minute to mix cells and compound. Incubate plates at 37° C. […] Next day, harvest 50 μl cells from each well, add to 50 μl Cell Titer Glo reagent ([…]). Shake plates for 1 minute. Read on luminometer.
(ATP-based viability assays read luminescence as a measure of living cells.)

For a further assay, the system named is B-cell line BJAB. In words: BJAB toxicity, Cell Titer Glo assay. Type of assay: cell-based. The method, then:
Seed 50 μl cells (1×10^6/ml) into each well containing 50 μl compound. The final vehicle concentration is 0.5% DMSO, 1.5% MeOH. Shake plates for 1 minute to mix cells and compound. Incubate plates at 37° C. (5% CO2) for 18 hours. Next day, harvest 50 μl cells from each well, add to 50 μl Cell Titer Glo reagent ([…]). Shake plates for 1 minute. Read on luminometer.

The test system of assay [7] is Human Jurkat T-cells (clone N). Put plainly: Jurkat T-cell activation (anti-TCR, CD69 upregulation). The format is cell-based. The method in brief:
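Readout is CD69 upregulation by flow cytometry (anti-CD69-APC, 20 min at 4 °C) after 20 h anti-TCR (C305, 500 ng/ml) stimulation at 37 °C.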

In assay [8] the test system is basophil cells (human peripheral blood). In words: Basophil anti-IgE activation: histamine release assay. Particulars: basophils, anti-IgE activation, histamine release; read-out: Basophils anti-IgE Histamine IC50. The format is cell-based. Here is the method:
(§2) The basophil activation assay was carried out using whole human peripheral blood from donors allergic to dust mites with the majority of the red blood cells removed by dextran sedimentation. Human peripheral blood was mixed 1:1 with 3% dextran T500 and RBCs were allowed to settle for 20-25min. The upper fraction was diluted with 3 volumes of D-PBS and cells were spun down for 10 min at 1500 rpm, RT. Supernatant was aspirated and cells were washed in an equal volume MT-buffer. Finally, cells were resuspended in MT-buffer containing 0.5% DMSO in the original blood volume. 80 uL cells were mixed with 20 uL compound in the presence of 0.5% DMSO, in triplicate, in a V-bottom 96-well tissue culture plate. A dose range of 8 compound concentrations was tested resulting in a 10-point dose response curve including maximum (stimulated) and minimum (unstimulated) response. […] The cells were stimulated for 30 minutes at 37° C., 5% CO2. The plate was spun for 10 min at 1500 rpm at room temperature and 80 uL the supernatant was harvested for histamine content analysis using the histamine ELISA kit supplied by Immunotech. The ELISA was performed according to supplier's instructions.

For assay [9] the test system is unchanged. Put plainly: Basophil dustmite activation: histamine release assay. The format is cell-based. Particulars: basophils, dust mite activation. Here is the method: as §2
Assay [10] has the same test system. In words: Basophil ionomycin activation: histamine release assay. Particulars: basophils, ionomycin activation, histamine release; read-out: Basophils Ionomycin Histamine IC50. The format is cell-based. In a few lines:
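Dextran-sedimented leukocytes from peripheral blood of dust-mite-allergic human donors were incubated with compound (8 concentrations, 0.5% DMSO, triplicate) and then stimulated with 2 μM ionomycin stock (20 μl added) for 30 min at 37° C. Histamine released into the supernatant was measured by ELISA.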

Assay [11] relates to cultured human mast cells (CHMC). In words: CHMC high cell density IgE activation: histamine. Type of assay: cell-based. The method in brief:
as §1

For assay [12] the test system is unchanged. Put plainly: CHMC high cell density IgE activation: IL-13. Type of assay: cell-based. Here is the method:
After sensitizing, cells are counted, pelleted (1000 rpm, 5-10 minutes), and resuspended at 1-2 ×10^6 cells/ml in MT buffer. Add 100 ul of cell suspension to each well and 100 ul of compound dilutions. The final vehicle concentration is 0.5% DMSO. Incubate at 37° C. (5% CO2) for 1 hour. After 1 hour of compound treatment, stimulate cells with 6× anti-IgE. Mix wells with the cells and allow plates to incubate at 37° C. (5% CO2) for one hour. After 1 hour incubation, pellet cells (10 minutes, 1000 RPM) and collect 200 ul per well of the supernatant, being careful not to disturb pellet. Place the supernatant plate on ice. During the 7-hour step (see next) perform tryptase assay on supernatant that had been diluted 1:500. Resuspend cell pellet in 240 ul of CM media containing 0.5% DMSO and corresponding concentration of compound. Incubate CHMC cells for 7 hours at 37° C. (5% CO2). After incubation, pellet cells (1000 RPM, 10 minutes) and collect 225 ul per well and place in −80° C. until ready to perform ELISAS. ELISAS are performed on appropriately diluted samples (determined empirically for each donor cell population so that the sample measurement falls within the standard curve) following the supplier's instructions.

For assay [13], the target named is T1, Syk kinase (Homo sapiens, UniProt P43405).
T1 construct: purchased Upstate, Lake Placid NY
Put plainly: Syk kinase biochemical fluorescence polarization assay. Particulars: isolated Syk kinase, fluorescence polarization, 4 uM ATP. (In general: Polarisation of emitted light reports the rotation of a fluorescent probe.)

Assay [14] concerns Syk kinase. In words: Phosphorylation of proteins in the FcεRI cascade in activated CHMC cells. Type of assay: cell-based, human. Particulars: activated CHMC cells (FIG. 10). Here is the method: Following electrophoresis, the phosphorylation of the proteins indicated in FIGS. 7, 10 and 11A-D were assessed by immunoblot. Antibodies were purchased from Cell Signaling Technology, Beverley, Mass.

Setting [15] is: Low Density, read-out: CHMC anti-IgE Tryptase.
[16] abbreviates: Low Density, read-out: CHMC Ionomycin Tryptase.
Where [17] appears, read: Low Density CHMC, ionomycin activation, tryptase release, read-out: CHMC Ionomycin Tryptase IC50.

The structures appear in SMILES notation.

Regarding `OCCOc1cccc(Nc2ncc(F)c(Nc3cccc(OCCO)c3)n2)c1` [Compound R935075], the IC50 is 930 nM in assay [1] (setting [15]); > 10 µM in assay [2] (setting [16]); 647 nM in assay [3]; 1210 nM in assay [4]; < 220 nM in assay [5]; > 2000 nM in assay [6]. Besides, the results for the IC50 (in the assay on Jurkat cells; in the assay with B-cell line BJAB; in assay [7]) were > 4.33 µM, > 4.33 µM and 5.37 µM, respectively.

As for `O=C(NCCO)c1cc2cc(Nc3ncc(F)c(Nc4cccc(O)c4)n3)ccc2o1` [Compound R926497], the IC50 in assay [1] (Low Density CHMC, anti-IgE activation, tryptase release, read-out: CHMC anti-IgE Tryptase IC50) was 138 nM; in [2] (setting [17]), > 10 µM; in [8] it was 270 nM; in assay [9], 205 nM; in [10] it was > 10 µM; in assay [3], 1110 nM. Moreover, the IC50 in assay [4] was 1230 nM; in [11], 1330 nM; in assay [6] it was 1880 nM; in assay [12], > 10000 nM; in assay [7], 3.27 µM.

In the case of `Fc1cnc(Nc2cccc(OCCN3CCOCC3)c2)nc1Nc1ccc2c(c1)OCCO2` [Compound R926511], the IC50 in assay [2] (setting [17]) was > 10 µM; in assay [12], > 2000 nM; with Jurkat cells, > 4.33 µM; in the assay on B-cell line BJAB it was > 4.33 µM.

With `Cc1cc(Nc2ncc(F)c(Nc3cccc(O)c3)n2)cc(Cl)c1O` [Compound R940233], the IC50 in [1] (setting [15]) was 132 nM; in [2] (setting [16]), > 10 µM; in [3] it was 577 nM; in assay [4], 642 nM; in assay [11], 586 nM; in assay [5], 118 nM. Moreover, the IC50 in assay [6] is 2250 nM; in assay [12], 1780 nM; in the assay on Jurkat cells, > 4.33 µM; in the assay on B-cell line BJAB it was > 4.33 µM; on Syk kinase [13], 151 nM; in assay [7], 2.17 µM.

As to `CC(C)(C)n1nc(-c2ccc(Cl)cc2)c2c(N)ncnc21` [PP2, reference compound], the “phosphorylation of proteins downstream of LYN kinase but not Syk kinase” value in the assay on Syk kinase [14] is reported as “inhibition of phosphorylation of proteins downstream of LYN kinase but not Syk kinase”.

Values taken from patent US8158621B2, “Methods of treating or preventing autoimmune diseases with 2,4-pyrimidinediamine compounds” (Rigel Pharmaceuticals, Inc., priority 2002, dated 2012).
